Experimental data taken from US8759049B2, “Method for the production of a fermentation product from a sugar hydrolysate” (Iogen Energy Corporation, priority 2010, dated 2014).

Tests used:
Assay type in all cases: cell-based
[1] = test system: bacteria contaminating yeast cream; assay: Bacterial plate counts of yeast cream in industrial scale operation before and after treatment
Description: A volume of 100,000 L whole fermentation broth was separated into a beer fraction and a yeast cream after completion of the fermentation. The yeast cream was concentrated to approximately 170 g dry cell weight/L. Prior to recycle into the next fermentation batch, the yeast cream contaminated with bacteria was treated at 20° C. with acid alone (batch 1) or treated with acid in combination with chlorine dioxide (batch 2). […] Chlorine dioxide was generated in concentrated form at a nominal concentration of 2700 ppm using a system commercially available from Pureline, Palatine, Ill. In the combination treatment, the acidity of the yeast cream was first lowered to pH 2.0 (as per Example 1.1) and subsequently treated at a bolus dose of 200 ppm chlorine dioxide with a residence time of approximately 45 seconds. After treatment, the yeast cream was fed back into the fermentation.

[2] = test system: bacteria that proliferated in the industrial fermentation (contaminated yeast cream); assay: Bacterial plate counts of contaminated yeast cream after acid and/or chlorine dioxide treatment (lab scale, Examples 1.1 and 1.2); conditions: for reduction of bacterial population: yeast cream first lowered to pH 2.0 with sulfuric acid, 5 minutes
Description: A yeast cream (also referred to herein as a “yeast slurry”) separated from the fermentation broth and contaminated with bacteria that proliferated in the industrial fermentation was treated at 20° C. with acid alone, chlorine dioxide alone or a combination of the two. In the acid treated condition, the pH was lowered from 5.0 to 2.0 with sulfuric acid. In the chlorine dioxide treated condition, a concentrated stock of chlorine dioxide in water (10,000 ppm) was prepared by passing a mixture of chlorine and nitrogen gas through sodium chlorite columns. The resulting ClO2 gas was sparged into 4 L of cold de-ionized water until the desired concentration was reached. This chlorine dioxide solution was used to treat the yeast cream.
In the combination treatment, the yeast cream was first lowered to pH 2.0 with sulfuric acid for 5 minutes and subsequently treated with the indicated bolus dose of chlorine dioxide for 5 minutes. In cases where the pH was lowered, the yeast cream was titrated back to 5.0 with sodium hydroxide after 10 minutes and prior to plating for bacterial enumeration. The duration of acid exposure was limited to 10 minutes to match the duration of exposure for the other treatments.
Bacterial colonies were enumerated via standard plate count methods. In order to selectively plate bacterial colonies and inhibit yeast growth, tryptic soy agar plates (15 g/L pancreatic digest of casein, 5 g/L enzymatic digest of soybean meal, 5 g/L sodium chloride and 15 g/L agar) with 100 mg/L cycloheximide were used. Samples were serially diluted into sterile saline (0.9% NaCl w/v) prior to plating.
Contaminated yeast cream obtained from the fermentation of Example 1.1 was titrated to pH 2.0 with sulfuric acid, treated with various concentrations of chlorine dioxide (0, 50, 100, 150 and 200 ppm) and plated to determine the bacterial reduction at pH 2.0 as outlined above, with the exception that the temperature of the treatment was 30° C. rather than 20° C. Bacterial populations were enumerated as previously described (Example 1.1). Bacterial populations were also enumerated on a control sample that was not subjected to chlorine dioxide or pH titration.

[3] = test system: Saccharomyces cerevisiae yeast strain; assay: Yeast cell counts (viability) of yeast cream after acid and/or chlorine dioxide treatment
Description: A sample of the yeast cream from Example 1.1 was plated for yeast growth after the treatments outlined therein. […] Selective yeast growth was enabled by serially diluting the cream in sterile saline (0.9% NaCl w/v) and plating on YM plates (10 g/L glucose, 5 g/L peptone, 3 g/L yeast extract, 3 g/L malt extract, 20 g/L agar) containing 34 mg/L chloramphenicol to inhibit bacterial growth.

[4] = test system: contaminated yeast cream (Saccharomyces cerevisiae yeast strain with bacterial contaminants); assay: Yeast fermentation performance in lignocellulosic hydrolysate after treatment of contaminated yeast cream
Description: Yeast fermentation performance was evaluated by inoculating the contaminated control yeast, acid-treated yeast and combination acid-chlorine dioxide treated yeast creams (treated as set forth in Example 1.1) into 400 mL of lignocellulosic hydrolysate. The lignocellulosic hydrolysate was produced as set forth in Example 1.1. Prior to inoculation, the media was sparged with pure CO2 for two minutes to ensure anaerobicity. Cells were allowed to ferment at 30° C., 150 rpm until sugar exhaustion. CO2 production was monitored for the course of the fermentation and samples were taken for dry cell weight and HPLC analysis.
The samples were analyzed for cell mass using dry cell weight (Rice et al. (1980) Am. Soc. Brew. Chem. J. 38:142-45, which is incorporated herein by reference). For the fermentability analysis, samples were taken from the bioreactors using a 10 mL syringe. From each sample, cells in 2 mL culture samples were pelleted by centrifugation and the supernatant decanted and filtered through a 0.2 μm syringe filter. Each supernatant sample was diluted with 5 mM sulfuric acid. All dilutions were analyzed for glucose, xylose, xylitol, glycerol, and ethanol content on the Agilent 1100 Series Refractive Index Detector HPLC, while acetic and lactic acid were analyzed concurrently using an Agilent 1200 Series Variable Wavelength Detector HPLC. The column used for separation was the Varian Metacarb 87H Organic Acid column, maintained at 50° C. with a 5 mM sulfuric acid mobile phase at a flow rate of 0.6 mL/min. The unit was equipped with the 1100 Series Auto-sampler and Pumping System and controlled with the Chemstation software.

## [O][Cl+][O-] [chlorine dioxide]
[1]; pH 2.0 with sulfuric acid then 200 ppm chlorine dioxide, about 45 seconds, 20° C., industrial scale (batch 2)
  decrease of bacterial contamination counts: 10^4 CFU/mL
[2]; 100 ppm chlorine dioxide, pH 2, 30° C.
  reduction of contamination in yeast cream: 10^2 CFU/mL
[2]; 200 ppm chlorine dioxide, pH 2, 30° C.
  decrease of bacterial counts: greater than 10^5 CFU/mL
[2]; 200 ppm chlorine dioxide, 20° C.
  reduction of bacterial population: 10^2 CFU/mL
[2]; 500 ppm chlorine dioxide, room temperature, as restated in Example 1.2 (see FIG. 2)
  reduction of bacterial counts: 100 fold
[2]; 500 ppm chlorine dioxide, 20° C.
  reduction of bacterial population: 10^3 CFU/mL
[2]; pH 5.0, 0, 200 and 500 ppm, 20° C., no acid
  effect of increasing chlorine dioxide dose on bacterial populations: negligible effect
[3]; 0, 200, 500 ppm, regardless of the pH of the treatment (pH 5 or pH 2)
  effect of increasing chlorine dioxide dose on fermentation yeast populations: negligible effect
[3]; combination of acid (pH 2) and chlorine dioxide 200 and 500 ppm, 20° C.
  viability of the fermentation yeast culture: not affected
[4]; combination acid-chlorine dioxide treatment (pH 2, 200 and 500 ppm) versus untreated control, change greater than with acid alone
  xylose consumption rate in lignocellulosic hydrolysate: relative decrease
[4]; combination acid-chlorine dioxide treatment versus untreated control, change greater than with acid alone
  ethanol yield: increase

## O=S(=O)(O)O [sulfuric acid]
[1]; sulfuric acid alone to pH 2.0, 20° C., industrial scale (batch 1)
  reduction of bacterial contamination counts: 10^2 CFU/mL
[2]; pH 2.0, no chlorine dioxide, 30° C.
  reduction of bacterial population by acid alone (pH control): did not reduce
[2]; pH 2.0 with sulfuric acid, 0 ppm chlorine dioxide, 20° C., 10 minutes
  reduction of bacterial population by lowering the pH alone: does not significantly reduce
[3]; acid treatment alone, pH 2, 20° C.
  viability of the fermentation yeast culture: not affected
[4]; acid treatment alone (pH 2) versus untreated control
  ethanol yield: increase
[4]; acid treatment alone (pH 2) versus untreated control, equivalent cell concentrations, 30° C.
  xylose consumption rate in lignocellulosic hydrolysate: relative decrease
